In assay [1] the test system is Sarcoma-180. The experiment in a line: Inhibition of DNA synthesis in mouse Sarcoma-180 cells at 8 uM incubated for 30 mins by [3H]-thymidine incorporation based scintillation counter analysis. The note with it: Sarcoma-180, 0.5 h. The format is functional. In general terms: Uptake of a labelled nucleoside into DNA is a usual measure of proliferation.
The test system of assay [2] is Sarcoma-180. Briefly: Antitumor activity against mouse Sarcoma-180 cells xenografted in Swiss mouse assessed as T/C ratio at 0.5 mg/kg, po daily measured upto 7 days. The format is functional. The note with it: time <= 7 day.
Assay [3] deals with Sarcoma-180. Briefly: Inhibition of RNA synthesis in mouse Sarcoma-180 cells at 8 uM incubated for 60 mins by [3H]-uridine incorporation based scintillation counter analysis. The note with it: Sarcoma-180, 1 h. The format is functional.
Assay [4] relates to Ehrlich. The experiment in a line: Antitumor activity against mouse EAC cell xenografted in Swiss mouse assessed as T/C ratio at 40 mg/kg, po daily measured upto 7 days. The class given is functional. To be noted: time <= 7 day.
Assay [5] deals with Sarcoma-180. The experiment in a line: Antitumor activity against mouse Sarcoma-180 cells xenografted in Swiss mouse assessed as T/C ratio at 40 mg/kg, po daily measured upto 7 days. The class given is functional. The note with it: time <= 7 day.
The subject of assay [6] is Sarcoma-180. Briefly: Antitumor activity against mouse Sarcoma-180 cells xenografted in Swiss mouse assessed as T/C ratio at 25 mg/kg, po daily measured upto 7 days. The format is functional. The note with it: time <= 7 day.
Assay [7] deals with Ehrlich. The experiment in a line: Antitumor activity against mouse EAC cell xenografted in Swiss mouse assessed as T/C ratio at 25 mg/kg, po daily measured upto 7 days. The class given is functional. The note with it: time <= 7 day.
A further assay concerns Shigella dysenteriae. Briefly: Antibacterial activity against Shigella dysenteriae assessed as inhibition of bacterial growth by two-fold serial dilution assay. The class given is functional.
The subject of the next assay is MCF7. Briefly: Cytotoxicity against human MCF7 cells assessed as cell growth inhibition by CCK-8 assay. The format is functional, cell-based. For orientation: Tetrazolium assays rely on reduction of a dye to a coloured formazan, in cell work by metabolically active cells.
The test system of another assay is Proteus vulgaris. The experiment in a line: Antibacterial activity against Proteus vulgaris assessed as inhibition of bacterial growth by two-fold serial dilution assay. The class given is functional.

SMILES strings stand for the structures. In brackets after ≈: the same amount, converted by molar mass.

One may read the inhibition as how much of the control response was suppressed. A low value points to a response near the control. The term T/C denotes the ratio of treated to control. For the molecule `CN(C)CCN1C(=O)c2cccc3cc([N+](=O)[O-])cc(c23)C1=O` [MITONAFIDE], the inhibition at 8 µM in the assay with Sarcoma-180 [1] was found to be 99%; with Sarcoma-180 [3], 94%. In addition, the T/C in the assay on Sarcoma-180 [2] is listed as 187%.

Consider `CCN(N=O)C(=O)NCCN1C(=O)c2cccc3cccc(c23)C1=O`, for which the T/C in the assay on Ehrlich [4] is recorded as 134%; with Sarcoma-180 [5] it was 140%. Moreover, the inhibition at 8 µM amounted to 65% in the assay on Sarcoma-180 [1] and 60% in the assay with Sarcoma-180 [3].

Turning to `O=NN(CCCl)C(=O)NC1CCCCC1` [LOMUSTINE], the T/C is recorded as greater than 279% in the assay on Sarcoma-180 [6] and greater than 240% with Ehrlich [7]. The inhibition at 8 µM in the assay with Sarcoma-180 [1] was 64%; with Sarcoma-180 [3], 90%.

Usually MIC stands for the lowest concentration that inhibits growth of the organism. The term IC50 denotes the concentration that inhibits the measured activity by half. Take `CCNc1ccc2c3c(cccc13)C(=O)N(CC(O)Cn1c([N+](=O)[O-])cnc1C)C2=O` (centres undefined): the minimum inhibitory concentration (MIC) in the assay on Shigella dysenteriae amounted to 10 µM (≈ 4.23 µg/mL); in the assay with Proteus vulgaris, 2 µM (≈ 0.847 µg/mL). The IC50 in the assay with MCF7 was 8.51 µM.

Values taken from ChEMBL document CHEMBL5244223, “l,8-Naphthalimide based DNA intercalators and anticancer agents. A systematic review from 2007 to 2017” (Eur J Med Chem, 2018).
